Measurements reported in the supplement of paper PMC10307832.

Assays:
Test in all cases: relative viability (nuclei count vs DMSO), 5 days (fraction); higher = more cells survive
[1] = compound: C[C@@H](N)c1ccc(C(=O)Nc2ccnc3[nH]ccc23)cc1 + O=C(CCCCCCC(=O)Nc1ccccc1)NO [Vorinostat] (partner 1 µM)
Summary of the method: (§1)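 Relative viability is defined as nuclei in treated wells over nuclei in vehicle wells. Duplicate plates were run and medians reported. Lung cancer cell lines in 1536-well plates were dosed by pin tool one day after seeding, with one drug or with a fixed anchor-drug dose plus five library-drug doses (not always all listed) in √10 steps, and nuclei were counted after 5 days.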

Tanzisertib + Tozasertib = compound: O[C@H]1CC[C@H](Nc2ncc3nc(Nc4c(F)cc(F)cc4F)n([C@H]4CCOC4)c3n2)CC1 [Tanzisertib] + Cc1cc(Nc2cc(N3CCN(C)CC3)nc(Sc3ccc(NC(=O)C4CC4)cc3)n2)n[nH]1 [Tozasertib] (partner 0.1 µM)
Summary of the method: as §1

Tanzisertib + Dasatinib = compound: O[C@H]1CC[C@H](Nc2ncc3nc(Nc4c(F)cc(F)cc4F)n([C@H]4CCOC4)c3n2)CC1 [Tanzisertib] + Cc1nc(Nc2ncc(C(=O)Nc3c(C)cccc3Cl)s2)cc(N2CCN(CCO)CC2)n1 [Dasatinib] (partner 0.075 µM)
Summary of the method: as §1

[2] = compound: C[C@@H](N)c1ccc(C(=O)Nc2ccnc3[nH]ccc23)cc1 + Cc1nc(NC(=O)N2CCC[C@H]2C(N)=O)sc1-c1ccnc(C(C)(C)C(F)(F)F)c1 [Alpelisib] (partner 2 µM)
Summary of the method: as §1

| Cell Line | relative viability ([1]; first compound 0.04 µM) | relative viability ([1]; first compound 0.1265 µM) | relative viability ([1]; first compound 0.4 µM) | relative viability ([1]; first compound 1.265 µM) | relative viability ([1]; first compound 4 µM) | relative viability (Tanzisertib + Tozasertib; first compound 0.08 µM) | relative viability (Tanzisertib + Tozasertib; first compound 0.253 µM) | relative viability (Tanzisertib + Tozasertib; first compound 0.8 µM) | relative viability (Tanzisertib + Tozasertib; first compound 2.53 µM) | relative viability (Tanzisertib + Tozasertib; first compound 8 µM) | relative viability (Tanzisertib + Dasatinib; first compound 0.08 µM) | relative viability (Tanzisertib + Dasatinib; first compound 0.253 µM) | relative viability (Tanzisertib + Dasatinib; first compound 0.8 µM) | relative viability (Tanzisertib + Dasatinib; first compound 2.53 µM) | relative viability (Tanzisertib + Dasatinib; first compound 8 µM) | relative viability ([2]; first compound 0.04 µM) | relative viability ([2]; first compound 0.1265 µM) | relative viability ([2]; first compound 0.4 µM) | relative viability ([2]; first compound 1.265 µM) | relative viability ([2]; first compound 4 µM) |
| --- | --- | --- | --- | --- | --- | --- | --- | --- | --- | --- | --- | --- | --- | --- | --- | --- | --- | --- | --- | --- |
| EKVX | 0.672 | 0.672 | 0.83 | 0.44 | 0.517 | 0.403 | 0.395 | 0.407 | 0.36 | 0.377 | 0.467 | 0.565 | 0.55 | 0.503 | 0.411 | 0.897 | 0.95 | 0.887 | 0.895 | 0.748 |
| ABC-1 | 1.23 | 1.11 | 1.01 | 0.998 | 0.941 | 0.165 | 0.197 | 0.175 | 0.137 | 0.134 | 0.586 | 0.604 | 0.523 | 0.614 | 0.597 | 1.22 | 1.04 | 1.37 | 1.58 | 0.809 |
| NCI-H520 | 0.862 | 0.757 | 0.813 | 0.714 | 0.693 | 0.411 | 0.464 | 0.403 | 0.428 | 0.414 | 0.233 | 0.207 | 0.232 | 0.192 | 0.23 | 0.971 | 0.969 | 1.21 | 1.12 | 1.07 |
| LCLC-97TM1 | 0.835 | 0.374 | 0.69 | 0.0878 | 0.779 | 0.252 | 0.199 | 0.207 | 0.207 | 0.179 | 0.953 | 0.878 | 0.831 | 0.786 | 0.901 | 0.242 | 0.239 | 0.343 | 0.373 | 0.48 |
| NCI-H2170 | 0.854 | 0.886 | 0.902 | 0.771 | 0.846 | 0.881 | 0.789 | 0.669 | 0.717 | 0.651 | 0.625 | 0.586 | 0.574 | 0.568 | 0.512 | 0.879 | 0.436 | 0.765 | 0.833 | 0.627 |
| NCI-H1793 | 0.894 | 0.905 | 0.991 |  | 1.01 | 0.289 | 0.287 | 0.303 | 0.246 | 0.223 | 0.417 | 0.367 | 0.405 | 0.388 | 0.423 | 0.853 | 0.672 | 0.704 |  | 0.833 |
| NCI-H3122 | 1.04 | 1.04 | 1.02 | 1.03 | 1.29 | 0.465 | 0.393 | 0.497 | 0.399 | 0.377 | 0.775 | 0.817 | 0.791 | 0.92 | 0.926 | 0.827 | 0.76 | 0.827 | 0.762 | 0.797 |
| PC-14 | 0.714 | 0.878 | 0.851 |  | 0.683 | 0.652 | 0.605 | 0.54 | 0.537 | 0.499 | 0.341 | 0.238 | 0.306 | 0.234 | 0.116 | 0.925 | 0.932 | 1.02 | 1.02 | 0.811 |
| EPLC-272H | 0.548 | 0.567 | 0.497 | 0.352 | 0.351 | 0.308 | 0.183 | 0.326 | 0.303 | 0.171 | 0.416 | 0.373 | 0.367 | 0.359 | 0.333 | 1.1 | 0.961 | 1.05 |  | 1.1 |
| A-427 | 0.77 | 0.851 | 0.81 | 0.746 | 0.772 | 0.244 | 0.196 | 0.214 | 0.198 | 0.2 | 0.778 | 0.684 | 0.65 | 0.646 | 0.808 | 1.12 | 1.13 | 1.08 |  | 1.07 |
